{
  "source": "patent US8257714B2",
  "about": "“Compositions and methods for immunotherapy of cancer and infectious diseases” (priority 2003, dated 2012)",
  "key": {"[1]": {"test_system": "DC-activity induced by ARP preparations", "assay": "Effect of divalent cations on DC-activity of ARP", "type": "cell-based, mouse", "conditions": "mM-μM concentration range", "text": "Some differences exist in the interaction of copper and zinc with ARP and must be explored further. […] The former was inhibited by both-calcium and magnesium ions, while the latter—only by magnesium ions."}, "[2]": {"test_system": "Plasmodium yoelii", "assay": "Malaria in mice", "type": "in vivo, C57BL/6 mice", "conditions": "40 mg/kg i.p. Days 1-5", "experimental": "Groups of male C57BL/6 mice were inoculated i.v. on Day 0 with an infectious dose of Plasmodium yoelii. Groups of mice were administered, by i.p. injection, one of three concentrations of the test material (0.1, 1.0 or 10.0 ng/mouse/day) or vehicle on Day 1 and again on Days 2 through 5, for a total of five doses. An additional assay control group of mice was administered approximately 40 mg of Chloroquine per kg of body weight by i.p. injection on Days 1 through 5 as well."}, "[3]": {"test_system": "Candida albicans", "assay": "Candida albicans infection in mice", "type": "in vivo, CDI mice", "experimental": "Groups of female CDI mice were inoculated intravenously (i.v.) on Day 0 with an infectious dose of Candida albicans calculated to provide 60-100% mortality in the control group. Groups of mice were administered, by i.p. injection, one of three concentrations of the test material (0.1, 1.0 or 10.0 ng/mouse/day) or vehicle on Day 0, approximately 1.5 hours following infectious challenge, and again on Days 1 through 4, for a total of five doses. An additional assay control group of mice was administered approximately 80 mg of fluconazole per kg of body weight by oral gavage approximately 1, 24, 48 and 72 hours following infectious challenge."}, "[4]": {"test_system": "S-180 tumor", "assay": "Murine S-180 tumor model", "type": "in vivo, BALB/c mice", "conditions": "GM-CSF alone, 20 ng/mouse/day", "experimental": "In a preferred embodiment, The S-180 cell line (ATCC CCL 8, batch F4805) is chosen as the tumor model because the same line is capable of growing both in animals and in culture (in both serum-containing and serum-free conditions). Tumors are established in mice (BALB/c) by injection of cell suspensions obtained from tissue culture. Approximately […] to 3×10^6 cells are injected intra-peritoneally per mouse. The tumor developed as multiple solid nodules at multiple sites within the peritoneal cavity and cause death in most of the animals within 10 to 15 days. In addition to monitoring animal survival, their condition is qualitatively assessed as tumor growth progressed and used to generate a tumor index as described in the following paragraph.\nTo establish an estimate of drug activity in tumor model experiments, an index can be developed that combines observational examination of the animals as well as their survival status. […]\nThe S-180 cell line (ATCC CCL 8, batch F4805) was chosen as the tumor model because the same line was capable of growing both in animals and in culture (in both serum-containing and serum-free conditions). […] In addition to monitoring animal survival, their condition was qualitatively assessed as tumor growth progressed and used to generate a tumor index. […]"}, "[5]": {"test_system": "Mouse sarcoma 180 cells", "assay": "NK cell-mediated cytotoxicity (NK-CMC) assay, LGL/S180 co-culture", "type": "cell-based", "conditions": "wide range of concentrations, presence and absence of IL-2 (125 U/ml)", "experimental": "In one embodiment, a NK cell assay is used to assess ARP-induced cytotoxic activity of NK-like cells (see section 12.2). Briefly, by way of example but not limitation, a NK cell assay can be carried out as follows: large granular lymphocytes (LGLs) are co-cultured with tumor cells at various ratios (effector to target ratio) for four days at 37° C., 5% CO2. […] The culture is terminated at the end of day 4 and vitally stained using a MTT cell viability quantification assay (see Mossman, T. J. Immunol. Methods 65: 55 (1983); and Sigma Chemical MTT (M5655) product application note). Culture media is aspirated and the remaining cells are washed and replaced with DMEM/F12 plus FCS, containing MTT. The cells are further incubated for 4-5 hours at 37° C. Absorbance is measured with the aid of a plate reader. Decreased absorbance indicated a decrease in the number of viable cells per well (i.e., cytotoxicity). Absorbance is measured again after the MTT is solubilized by replacement of the medium with 2-propanol containing HCl, which gives a uniform color throughout the well. NK-inducing activity is calculated relative to negative (PBS/BSA) and positive (internal standard) controls.\nSpleens (10-15 per experiment) were aseptically removed from male Balb/C mice 6-10 weeks of age. Splenocytes were “squeezed” out of spleens using 2 sterile glass microscope slides. Cells were collected in approximately 10 ml of DMEM/F 12 containing 10% fetal calf serum (FCS) and gentamicin (50 μg/ml). Single cell suspensions were generated by passing collected cells through a 70 μm nylon mesh screen. After washing the cell pellet once with PBS (centrifuged at 675×g for 5 min), red blood cells were lysed by brief hypotonic shock (i.e. exposure to sterile distilled, deionized water, followed immediately with appropriate volumes of 10×PBS to return to isotonicity). Remaining cells were centrifuged and resuspended in DMEM/F12+10% FCS and transferred to 75 cm^2 flasks each containing 25 mls DMEM/F12+10% FCS (cells from 5 spleens per flask). The cells were incubated for 60 min. at 37° C. to selectively remove readily adherent cells (mainly fibroblasts and macrophages). After the incubation, the flasks were gently shaken and the non-adherent cells were removed, pelleted by centrifugation, and resuspended in DMEM/F12 (no supplements) (1.0 mL/10^8 cells). A 1.0 mL volume of these cell suspensions were carefully layered onto a 70%/60%/40% (2 mL/4 mL/4 mL) Percoll™ gradients in 15 ml centrifuge tubes and centrifuged for 30 min at 675×G. The cells which sediment at the 40/60 interface represent primarily large granular lymphocytes (LGLs), enriched with NK cells. These cells were carefully removed with a pasteur pipet, centrifuged, washed once with PBS and resuspended in approximately 5 mL DMEM/F12 supplemented with gentamicin (50 μg/mL) and 10% fetal calf serum. Cell counts and appropriate dilutions of LGL cells were made with these cells, as described below. For convenience this LGL cell preparation is interchangeably referred to as NK cells.\nMouse sarcoma 180 cells were seeded into 96 well plates at a density of 5×10^3 cells per well in 100 μl DMEM/F12, supplemented with 10% FCS and gentamicin (50 μg/mL). […] NK cells were added in 100 μL of supplemented DMEM/F12 at designated densities: 0 NK cells/well; 5×10^4 NK cells/well (1:10 target/effector ratio); 1.25×10^5 NK cells/well (1:25 target/effector ratio); 2.5×10^5 NK cells/well (1:50 target/effector ratio); and, 5×10^5 NK cells/well (1:100 target/effector ratio). (Note: routinely, only the 1:50 and 1:100 ratios were used for screening purposes. IL2 was added as a media supplement with final concentration of 125 U/mL.). Co-cultures were incubated for 4 days at 37° C., 5% CO2, and terminated and vitally stained using a MTT cell viability quantification assay (see Mossman, T. J. Immunol. Methods 65:55 (1983); and Sigma Chemical MTT (M5655) product application note). […]"}, "[6]": {"test_system": "freshly isolated dendritic cells (CD11c+ splenocytes)", "assay": "Dendritic cell (DC) assay: IL12 release from freshly isolated dendritic cells", "type": "cell-based, BALB/c mice", "conditions": "tested for synergism and inhibition", "text": "In a preferred embodiment, dendritic cell (DC) assay is used to follow interleukin-12 (IL-12) release from freshly isolated dendritic cells as an index of DC activation (see section 12.3). […] Briefly, by way of example but not limitation, a DC assay can be carried out as follows: freshly isolated dendritic cells (CD11c^+ splenocytes, e.g., isolated from the spleens of BALB/c mice within ten hours of assaying the activity) are suspended at a density of 0.5×10^6 cells per mL in cytokine supplemented culture media (GM-CSF, 1.0 ng/ml; IL-4, 1.0 ng/ml; IFNg, 3.0 ng/ml; anti mouse CD40, 0.5 mg/ml). […] Mouse IL-12 release from the dendritic cells (CD11c^+ splenocytes) is then measured using ELISA.\nTo follow the activity in semi-purified preparations of BEX, an assay which follows IL12 release from freshly isolated dendritic cells (DCs) as an index of DC activation was developed. This activity is highly correlated with both NK-CMC in vitro and anti-tumor activity in vivo.\nDCs were isolated from the spleens of male BALB/c mice 8-12 weeks of age (Harlan Bioproducts for Science, Indianapolis, Ind.), using the magnetic assisted cell separation (MACS) system purchased from Miltenyi Biotech. In summary: Spleens were aseptically removed from mice and placed into a petri dish containing 5 mL holding media (DMEM/F12 supplemented with 10% FCS and antibiotics). Each spleen was then injected with ˜0.5 mls collagenase D solution (1 mg/mL in 10 mM Hepes-NaOH, pH 7.4, 150 mM NaCl, 5 mM MgCl2, 1.8 mM CaCl2), placed into 5-10 mL collagenase D, cut into 5-6 pieces and incubated at 37° C. for 45-60 min. Collagenase-digested spleens were then processed with glass slides and passed through a 70 μm nylon mesh cell strainer. After the strainer was flushed with 40 mL culture media, cells were centrifuged (8 min @ 200×G), suspended in 1 mL PBS and subjected to red blood cell lysis by incubating the cell suspension for 5 min at room temperature in 10 mL lysis buffer (155 mM NH4Cl, 10 mM KHCO3, 0.1 mM EDTA), followed by dilution in PBS to 50 mL and centrifugation (8 min @ 200×g). The splenocytes were then suspended in 10 mL MACS buffer (PBS pH 7.2, supplemented with 2 mM EDTA and 0.5% BSA), passed through a 40 μm nylon mesh cell strainer which was flushed with 40 mL MACS buffer. A preliminary cell count was taken at this time, prior to centrifugation (8 min @ 200×G). The splenocytes were suspended at a density of 10^8 cells per 400 μL MACS buffer. Paramagnetic MicroBeads coated with anti-CD11c^+ antibody were mixed with the splenocyte suspension (100 μL per 10^8 cells), incubated at +4° C. for 15 min, washed, suspended in 1.0 mL MACS buffer and passed through a MS+ separation column placed within a strong magnetic field. CD11c^+ cells were retained in the column whereas CD11c^− cells were washed off the column as the flow-through cell fraction. CD11c^+ cells were then collected by removing the column out of the magnetic field and flushing the column twice with 1 mL of MACS buffer. CD11c^+ cells were washed once with culture media and suspended at a density of 0.5×10^6 cells per mL in cytokine supplemented culture media {DMEM/F12 supplemented with 10% FCS and gentamicin containing mouse GM-CSF (1 ng/mL), mouse IL-4 (1 ng/mL), mouse IFNγ (3 ng/mL) and anti mouse CD40 (0.5 mg/mL)}.\nMouse IL12 release from CD11c^+ splenocytes was measured using ELISA. Briefly, CD11c+ cell culture supernatants were sampled following an overnight incubation (usually 15-18 hrs). Media samples ([…]) were added to ELISA plates coated with anti mouse IL12 (p70) capture antibody (R&D #MAB419; 250 ng in 100 μL per well) and incubated either at 37° C. or room temperature for 2 hrs. The ELISA plates were washed extensively with wash buffer after which 100 μL per well of detection antibody/detection reagent (biotinylated anti-mouse IL12; R&D #BAF419 at 50 ng/mL and streptavidin-HRP) was added. […]"}},
  "data": [
    {"molecule": "[Ca+2].[Cl-].[Cl-]", "note": "[CaCl2]", "values": [
      {"measurement": "inhibition of DC-activity of crude ARP preparations", "setting": "[1]", "result": "did not"}
    ]},
    {"molecule": "CCN(CC)CCCC(C)Nc1ccnc2cc(Cl)ccc12", "note": "(centres unmarked) [Chloroquine]", "values": [
      {"measurement": "Parasitized Erytthrocytes %", "setting": "[2]", "result": 12, "unit": "%"},
      {"measurement": "Survival (Days) ± SD", "setting": "[2]", "result": "37.0 ± 0.7", "unit": "days"}
    ]},
    {"molecule": "[Cl][Cu][Cl]", "note": "[CuCl2]", "values": [
      {"measurement": "inhibition of DC-activity of crude ARP preparations", "setting": "[1]", "result": "showed inhibition of activity"}
    ]},
    {"molecule": "OC(Cn1cncn1)(Cn1cncn1)c1ccc(F)cc1F", "note": "[Fluconazole, fluconazole]", "values": [
      {"measurement": "Percent Mortality", "setting": "[3]; ~80 mg/kg oral gavage", "result": 0, "unit": "%"},
      {"measurement": "Mean Survival Time", "setting": "[3]; ~80 mg/kg oral gavage 1, 24, 48 and 72 hours after challenge, all animals", "result": 14.0, "unit": "days"}
    ]},
    {"molecule": "[Cl-].[Cl-].[Mg+2]", "note": "[MgCl2]", "values": [
      {"measurement": "inhibition of DC-activity of crude ARP preparations", "setting": "[1]", "result": "did not"}
    ]},
    {"molecule": "[Cl-].[Cl-].[Zn+2]", "note": "[ZnCl2]", "values": [
      {"measurement": "inhibition of DC-activity of crude ARP preparations", "setting": "[1]", "result": "showed inhibition of activity"}
    ]},
    {"molecule": "GM-CSF: granulocyte macrophage-colony stimulating factor", "values": [
      {"measurement": "survivorship versus sham injections", "setting": "[4]", "result": "followed similar survivorship curves"}
    ]},
    {"molecule": "IL-10: interleukin (protein, UniProt P18893 19-178, looked up) Interleukin-10: SRGQYSREDNNCTHFPVGQSHMLLELRTAFSQVKTFFQTKDQLDNILLTDSLMQDFKGYLGCQALSEMIQFYLVEVMPQAEKHGPEIKEHLNSLGEKLKTLRMRLRRCHRFLPCENKSKAVEQVKSDFNKLQDQGVYKAMNEFDIFINCIEAYMMIKMKS", "values": [
      {"measurement": "NK-CMC Activity", "setting": "[5]", "result": "−"},
      {"measurement": "DC mIL12 Release", "setting": "[6]", "result": "inhibitory"}
    ]}
  ]
}
